Source: US20230346769A1, “USE OF SIMPLE ACYCLIC POLYAMINES FOR THE TREATMENT OF DISEASES CAUSED BY PARASITES OF THE GENUS LEISHMANIA” (Universidad De Granada, priority 2020, published 2023)

System: L. infantum promastigote forms
Assay: In vitro activity against extracellular (promastigote) forms
Assay type: cell-based, Leishmania infantum
Conditions: IC50 of macrophages / IC50 of parasite form
From the text: (§1) Methodology: Cultures of three Leishmania species, representative of the species causing each of the clinical forms of the disease, were used for these studies. Specifically, strains MCAN/ES/2001/UCM-1 O of L.infantum, isolated and characterised in Madrid from an infected dog; MHOM/BR/1975/M2904 of L.braziliensis, isolated in Brazil in a human case, and LCR-L 133 LRC of L.donovani. isolated in Jerusalem, Israel from a case of kala-azar […] (WHO Technical Reports Series 949. Geneva: WHO. March. The cultures of parasites come from an own collection which was prepared from a biobank project (Biobank and Characterisation Unit of Strains and Species of Trypanosomatids, Responsible for Human, Animal and Plant Pathologies, Cgl-2008-03687-E/Bos.), and are available on request.
(§2) The promastigote forms of the three species studied were cultured in vitro in sterility in single-phase MTL culture medium (Medium Trypanosomes Liquid) made from Hank’s Balanced Salts (Sigma-Aldrich, H6136) enriched with 10% (v/v) of Fetal Bovine Serum (SBF-1) inactivated at 56° C./ 30 minutes. The parasite inoculum to initiate the culture was 5 × 10^4 cells/ml in 5 ml medium in 25 cm^2 Falcon® plastic flasks and kept in an oven at 28° C. The cultures were performed routinely, achieving exponential growth of the flagellates until obtaining the cell mass necessary for the subsequent studies. Both promastigote forms and amastigote forms were used to conduct the assays.
(§3) The promastigote forms of the three Leishmania strains, cultured in the manner described above, were harvested in their exponential growth phase by centrifugation at 400 g for 10 min. The number of parasites was counted in a Neubauer Haemocytometer Counting Chamber and were inoculated in a 24-well plate at a concentration of 5 ×10^4 parasites/well.
(§4) The compounds to be assayed were dissolved in DMSO at a concentration of 0.01% (v/v), concentration at which this solvent is not toxic nor has any effect on the growth of parasites. The compounds were added to the culture medium at final concentrations of 100, 50, 25 and 12.5 µM. […] M. et al. Med. Chem. 2011. 54. 970-979].

Compound	Selectivity Index (SI) L. infantum Promastigote forms
CNCCNCc1ccncc1 [Compound 3, 1-{4-pyridyl)-2,5-diazahexane]	18
CNCCNCc1ccccn1 [Compound 1, 1-{2-pyridyl}-2,5-diazahexane]	23
CN(C)CCNCc1ccncc1 [Compound 6]	8

Same assay, conditions: Leishmania infantum, 72 h

Compound	IC50 [µM]
CNCCNCc1cccnc1 [Compound 2, 1-{3-pyridyl)-2,5-diazahexane]	6.4 ± 0.6
CN(C)CCNCc1cccnc1 [Compound 5, 1-{3-pyridyl}-5-methyl-2,5-diazahexane]	9.2 ± 0.7
CNCCNCc1ccncc1 [Compound 3, 1-{4-pyridyl)-2,5-diazahexane]	12.6 ± 2.1
CNCCNCc1ccccn1 [Compound 1, 1-{2-pyridyl}-2,5-diazahexane]	0.6 ± 0.2
CN(C)CCNCc1ccncc1 [Compound 6]	63.3 ± 1.5

System: L. donovani promastigote forms
Assay: as above
Assay type: cell-based, Leishmania donovani
Conditions: IC50 of macrophages / IC50 of parasite form
From the text: as §1, §2, §3, §4

Compound	Selectivity Index (SI) L. donvovani Promastigote forms
CNCCNCc1cccnc1 [Compound 2, 1-{3-pyridyl)-2,5-diazahexane]	26
CN(C)CCNCc1cccnc1 [Compound 5, 1-{3-pyridyl}-5-methyl-2,5-diazahexane]	11
CNCCNCc1ccncc1 [Compound 3, 1-{4-pyridyl)-2,5-diazahexane]	12
CNCCNCc1ccccn1 [Compound 1, 1-{2-pyridyl}-2,5-diazahexane]	2
CN(C)CCNCc1ccncc1 [Compound 6]	7

Same assay, conditions: Leishmania donovani, 72 h

Compound	IC50 [µM]
CNCCNCc1cccnc1 [Compound 2, 1-{3-pyridyl)-2,5-diazahexane]	11.7 ± 0.8
CN(C)CCNCc1cccnc1 [Compound 5, 1-{3-pyridyl}-5-methyl-2,5-diazahexane]	21.7 ± 1.6
CNCCNCc1ccncc1 [Compound 3, 1-{4-pyridyl)-2,5-diazahexane]	18.4 ± 0.8
CNCCNCc1ccccn1 [Compound 1, 1-{2-pyridyl}-2,5-diazahexane]	7 ± 0.5
CN(C)CCNCc1ccncc1 [Compound 6]	67.9 ± 5.3

System: L. braziliensis promastigote forms
Assay: as above
Assay type: cell-based, Leishmania braziliensis
Conditions: IC50 of macrophages / IC50 of parasite form
From the text: as §1, §2, §3, §4

Compound	Selectivity Index (SI) L. brazilensis Promastigote forms
CNCCNCc1cccnc1 [Compound 2, 1-{3-pyridyl)-2,5-diazahexane]	76
CN(C)CCNCc1cccnc1 [Compound 5, 1-{3-pyridyl}-5-methyl-2,5-diazahexane]	14
CNCCNCc1ccncc1 [Compound 3, 1-{4-pyridyl)-2,5-diazahexane]	16
CNCCNCc1ccccn1 [Compound 1, 1-{2-pyridyl}-2,5-diazahexane]	2
CN(C)CCNCc1ccncc1 [Compound 6]	9

Same assay, conditions: Leishmania braziliensis, 72 h

Compound	IC50 [µM]
CNCCNCc1cccnc1 [Compound 2, 1-{3-pyridyl)-2,5-diazahexane]	4.1 ± 0.2
CN(C)CCNCc1cccnc1 [Compound 5, 1-{3-pyridyl}-5-methyl-2,5-diazahexane]	16.7 ± 0.5
CNCCNCc1ccncc1 [Compound 3, 1-{4-pyridyl)-2,5-diazahexane]	14.3 ± 1
CNCCNCc1ccccn1 [Compound 1, 1-{2-pyridyl}-2,5-diazahexane]	7.4 ± 0.6
CN(C)CCNCc1ccncc1 [Compound 6]	52.5 ± 5.1

System: L. infantum amastigote forms
Assay: In vitro activity against intracellular (amastigote) forms in macrophages
Assay type: cell-based, Leishmania infantum
Conditions: IC50 of macrophages / IC50 of parasite form
From the text: as §1
(§5) For the study of the in vitro effect on intracellular forms of Leishmania, the experimental model designed by the group of the present inventors was used [Sánchez-Moreno. M. et al. Med. Chem. 2012, 55, 9900-9913; Sánchez-Moreno. M. et al. J. Antimicrob. Chemother. 2012, 67, 387-397]. The macrophages were detached from the culture flask where they were attached by dry blows. To do this, it was incubated in cold for 5 minutes and after that the flask was hit with the palm of the hand until the cells were detached from the flask. Then, they were passed to a 25 ml capacity steriling conical bottom flask (Deltalab) to centrifuge them at 120 g for 5 minutes, removing the supernatant and were counted in Neubauer’s chamber. Cells were suspended in RPMI medium at a concentration of 1×10^4 cells/well, then cultured in 24-well plates into which a 12 mm round slide had previously been placed into each well. For adherence, the cells were left 24 h at 37° C. in 5% CO2. Subsequently, the cells were infected in vitro by placing Leishmania cells at the rate of 10 parasites/macrophage according to [Sánchez-Moreno. M et al. Med. Chem. 2011, 54, 970-979]. […] The products were allowed to act for 72 hours of incubation.
(§6) After that time, the crystals were removed and fixed with methanol on a slide and allowed to dry, after which DPX microscopy mounting medium (Panreac®) was added to it. Once the preparations had been mounted, they were dyed with Giemsa by diluting Azur-Eosin-Methylene Blue solution according to Giemsa DC (Code 251338) with Sorensen buffer (1:10 dilution). The preparations were covered and allowed to colour for 20 minutes, after which they were washed with distilled water and then allowed to drain and dry vertically. Finally, the amastigote forms were counted with the aim of immersion in a total of 200 cells.

Compound	Selectivity Index (SI) L. infantum Amastigote forms
CNCCNCc1ccncc1 [Compound 3, 1-{4-pyridyl)-2,5-diazahexane]	16
CNCCNCc1ccccn1 [Compound 1, 1-{2-pyridyl}-2,5-diazahexane]	20
CN(C)CCNCc1ccncc1 [Compound 6]	21

Same assay, conditions: Leishmania infantum, Macrophage, 72 h

Compound	IC50 [µM]
CNCCNCc1cccnc1 [Compound 2, 1-{3-pyridyl)-2,5-diazahexane]	8.4 ± 0.5
CN(C)CCNCc1cccnc1 [Compound 5, 1-{3-pyridyl}-5-methyl-2,5-diazahexane]	10 ± 0.8
CNCCNCc1ccncc1 [Compound 3, 1-{4-pyridyl)-2,5-diazahexane]	13.9 ± 1
CNCCNCc1ccccn1 [Compound 1, 1-{2-pyridyl}-2,5-diazahexane]	0.7 ± 0.1
CN(C)CCNCc1ccncc1 [Compound 6]	23.6 ± 1.7

System: J774.2 macrophages
Assay: Macrophage toxicity by flow cytometry
Assay type: cell-based
Conditions: not given
Experimental: Macrophage toxicity: this study used the experimental model designed by the group of inventors [I. Ramírez-Macías. et. al. J. Antimicrob. Chemother. 2011, 66(4): 813-819] wherein flow cytometry is used. Briefly, macrophages from line J774.2 (ECACC number 91051511, obtained from a BALB/c female […] tumour in 1968) were deposited in a steriling tube and centrifuged at 120 g for 5 minutes. The supernatant was discarded and the cells were resuspended in MEM + Glutamine medium with 20% SBF (fetal bovine serum). 1×10^4 cells per well were then deposited from a 24-well titration plate and incubated for 24-48 h at 37° C. in a humid atmosphere enriched with 5% CO2 to fix them. […] After 72 h of incubation, the samples were prepared for reading on a flow cytometer. Specifically, 100 µl of propidium iodide solution (100 µg/ml) was added to each well and incubated for 10 min at 28° C. in the dark. Subsequently, 100 µl/well of fluorescein diacetate (FDA) (Sigma Chemical Co) in solution (100 ng/mL) was added and incubation was repeated under the same conditions for 10 minutes. Cells were recovered by centrifugation at 400 g for 10 minutes and washing the precipitate with PBS. Finally, the results were analysed in a FACS Vantage flow cytometer (Becton Dickinson) taking into account that the cells with the plasma membrane intact emit green colour as the esterases act on the FDA, while the cells that have lost the integrity of the membrane and are not viable, emit in the range close to 580 nm by penetrating the propidium iodide by passive diffusion and specifically binding to the nucleic acids thereof. Thus, to calculate the percentage of viability, the number of dead cells compared to controls was taken into account.

Compound	Toxicity in macrophages (IC50) compared with the reference compound
CNCCNCc1cccnc1 [Compound 2, 1-{3-pyridyl)-2,5-diazahexane]	low toxicities
CN(C)CCNCc1cccnc1 [Compound 5, 1-{3-pyridyl}-5-methyl-2,5-diazahexane]	much lower

Same assay, conditions: J774.2 macrophages, 72 h of culture

Compound	IC50 [µM]
CNCCNCc1cccnc1 [Compound 2, 1-{3-pyridyl)-2,5-diazahexane]	310 ± 11.5
CN(C)CCNCc1cccnc1 [Compound 5, 1-{3-pyridyl}-5-methyl-2,5-diazahexane]	230 ± 16.9
CNCCNCc1ccncc1 [Compound 3, 1-{4-pyridyl)-2,5-diazahexane]	223 ± 17.3
CNCCNCc1ccccn1 [Compound 1, 1-{2-pyridyl}-2,5-diazahexane]	13.7 ± 3.1
CN(C)CCNCc1ccncc1 [Compound 6]	497 ± 21.5

System: L. donovani amastigote forms
Assay: In vitro activity against intracellular (amastigote) forms in macrophages
Assay type: cell-based, Leishmania donovani
Conditions: IC50 of macrophages / IC50 of parasite form
From the text: as §1, §5, §6

Compound	Selectivity Index (SI) L. donvovani Amastigote forms
CNCCNCc1cccnc1 [Compound 2, 1-{3-pyridyl)-2,5-diazahexane]	21
CN(C)CCNCc1cccnc1 [Compound 5, 1-{3-pyridyl}-5-methyl-2,5-diazahexane]	13
CNCCNCc1ccccn1 [Compound 1, 1-{2-pyridyl}-2,5-diazahexane]	1

Same assay, conditions: Leishmania donovani, Macrophage, 72 h

Compound	IC50 [µM]
CNCCNCc1cccnc1 [Compound 2, 1-{3-pyridyl)-2,5-diazahexane]	14.4 ± 0.1
CN(C)CCNCc1cccnc1 [Compound 5, 1-{3-pyridyl}-5-methyl-2,5-diazahexane]	17.6 ± 0.7
CNCCNCc1ccncc1 [Compound 3, 1-{4-pyridyl)-2,5-diazahexane]	5.1 ± 0.3
CNCCNCc1ccccn1 [Compound 1, 1-{2-pyridyl}-2,5-diazahexane]	8.9 ± 0.9
CN(C)CCNCc1ccncc1 [Compound 6]	11.5 ± 1.3

System: L. braziliensis amastigote forms
Assay: as above
Assay type: cell-based, Leishmania braziliensis
Conditions: IC50 of macrophages / IC50 of parasite form
From the text: as §1, §5, §6

Compound	Selectivity Index (SI) L. brazilensis Amastigote forms
CNCCNCc1cccnc1 [Compound 2, 1-{3-pyridyl)-2,5-diazahexane]	20
CN(C)CCNCc1cccnc1 [Compound 5, 1-{3-pyridyl}-5-methyl-2,5-diazahexane]	11
CNCCNCc1ccncc1 [Compound 3, 1-{4-pyridyl)-2,5-diazahexane]	8
CNCCNCc1ccccn1 [Compound 1, 1-{2-pyridyl}-2,5-diazahexane]	2
CN(C)CCNCc1ccncc1 [Compound 6]	17

Same assay, conditions: Leishmania braziliensis, Macrophage, 72 h

Compound	IC50 [µM]
CNCCNCc1cccnc1 [Compound 2, 1-{3-pyridyl)-2,5-diazahexane]	15.8 ± 0.5
CN(C)CCNCc1cccnc1 [Compound 5, 1-{3-pyridyl}-5-methyl-2,5-diazahexane]	20 ± 2
CNCCNCc1ccncc1 [Compound 3, 1-{4-pyridyl)-2,5-diazahexane]	27.9 ± 1.2
CNCCNCc1ccccn1 [Compound 1, 1-{2-pyridyl}-2,5-diazahexane]	5.7 ± 0.3
CN(C)CCNCc1ccncc1 [Compound 6]	29.7 ± 2.5
